Reference: patent publication US20120004200A1, “TOPICAL PHARMACEUTICAL COMPOSITION CONTAINING A WATER-SENSITIVE ACTIVE PRINCIPLE” (GALDERMA S.A., priority 2008, published 2012)
Like-named read-outs stand apart in the source and are kept apart here. Each block holds one compound with its values, some of them ahead of it.

How the values were obtained:
[1] = Stability of calcitriol in various solvent oils; format: physicochemical; details: RT
Description: In order to optimize the dissolution of the active agent to be incorporated into the compositions according to the invention, stability tests are performed in various solvent oils: The preparations are prepared according to the following proportions: 0.00666% of calcitriol/0.29629% of BHT, a sufficient amount of solvent oil to obtain 100%. Assay technique by HPLC against reference substance.

[2] = T 3 months, 4% hydroquinone
Description: The preparations are prepared according to the following proportions: 4% of hydroquinone, a sufficient amount of solvent oil to obtain 100%.
(§1) Assay technique by HPLC against reference substance.

[3] = Stability of rucinol in various solvent oils; format: physicochemical; details: 40° C., T 1 month, 5% rucinol
Description: The preparations are prepared according to the following proportions: 5% of rucinol, a sufficient amount of solvent oil to obtain 100%.
as §1

[4] = Stability of ivermectin in various solvent oils; format: physicochemical; details: 40° C., T 1 month, 1% ivermectin
Description: The preparations are prepared according to the following proportions: 1% of ivermectin, a sufficient amount of solvent oil to obtain 100%.
as §1

% Calcitriol/To ([1]; solvent PPG-15 stearyl ether, T 1 month): 100.00%
% Calcitriol/To ([1]; solvent caprylic/capric triglycerides, T 1 month, 0.00666% calcitriol, 0.29629% BHT): 100.3%
% Calcitriol/To ([1]; solvent caprylic/capric triglycerides, T 3 months): 99.9%
% Calcitriol/To ([1]; solvent diisopropyl adipate, T 1 month): 101.5%
% Calcitriol/To ([1]; solvent diisopropyl adipate, T 3 months): 97.2%
% Calcitriol/To ([1]; solvent octyldodecanol, T 1 month): 98.3%
% Calcitriol/To ([1]; solvent octyldodecanol, T 3 months): 95.00%
Compound: C=C1/C(=C\C=C2/CCC[C@]3(C)[C@@H]([C@H](C)CCCC(C)(C)O)CC[C@@H]23)C[C@@H](O)C[C@@H]1O [Calcitriol, calcitriol]

% Hydroquinone/To ([2]; solvent PPG-15 stearyl ether, 40° C.): 96.00%
% Hydroquinone/To ([2]; solvent caprylic/capric triglycerides, 40° C.): 95.00%
% Hydroquinone/To ([2]; solvent diisopropyl adipate, temperature not given): 97.4%
Compound: Oc1ccc(O)cc1 [Hydroquinone, hydroquinone]

% Rucinol (% LC) ([3]; solvent PEG-8 caprylic/capric triglycerides): 100 % LC
% Rucinol (% LC) ([3]; solvent PEG-35 castor oil): 96 % LC
% Rucinol (% LC) ([3]; solvent PPG-15 stearyl ether): 95 % LC
% Rucinol (% LC) ([3]; solvent caprylic/capric triglycerides): 99 % LC
Compound: CCCCc1ccc(O)cc1O [Rucinol, rucinol]

Compound: ivermectin
% Ivermectin/To ([4]; solvent PPG-15 stearyl ether): 98.07%
% Ivermectin/To ([4]; solvent benzyl alcohol): 98.6%
% Ivermectin/To ([4]; solvent diisopropyl adipate): 96.7%
% Ivermectin/To ([4]; solvent phenoxyethanol): 98.6%
